Results as given in patent US20110237633A1, “SMALL MOLECULE MODULATORS OF HEPATOCYTE GROWTH FACTOR (SCATTER FACTOR) ACTIVITY” (priority 2008, published 2011).

Experiments:
[1] = test system: Endothelial cells (HUVECs); assay: Assessment of HGF/SF-like activity: HUVEC proliferation (3H thymidine incorporation / Cell titer Glo); format: cell-based, human; details: test compounds 10 μM (or 0.01 to 25 micromolar), 24 hr; growth compared to 50 ng/mL HGF control
Method: 1. Assessment of HGF/SF-like activity: The following assay is performed to assess the HGF/SF-like activity of the compounds of the invention. Endothelial cells (HUVECs) are seeded in 48 well plates at a density of 10,000 to 20,000 cells per well in the normal growth medium (EGM-2-Clonetics) containing 2% fetal bovine serum, FGF, VEGF, IGF, ascorbic acid, EGF, GA, heparin and hydrocortisone. The cells are grown normally in the growth medium for 24 hr at 37° C. and 5% CO2. The cells are then rinsed with RPMI-1% BSA and are starved for 1-2 hrs. The stock solutions of the compounds of the invention are made at a concentration of 10 mg/ml in DMSO and are diluted in RPMI-1% BSA at a final concentrations of 0.01 micromolar to 25 micromolar. The cells are then washed and are treated with the compounds and are incubated for another 24 hr at 37° C. Then ^3H thymidine (0.5 microgram/ml in RPMI-BSA) is added to the cells and they are incubated at 37° C. for 4 to 5 hours. The unincorporated thymidine is removed by washing the cells four times with 1×PBS. Then the cells are lysed with 0.5M NaOH for 30 min and the radioactivity is counted in the beta counter. A similar proliferation assay using monkey bronchial epithelial cells (4 MBR-5) is also employed.
In another assay format, HUVEC cells were grown in EGM-2 medium (Lonza) with 5% FBS to 80% confluence at 37° C. and in 5% CO2. Cells were plated in a white opaque flat bottom 96 well plate at a density of 10000 cells per well and in a volume of 100 μL, and incubated overnight and starved by washing twice in serum-free EGM-2 media. After 2 hours, cells were treated with 100 μL EGM-2 medium containing 10 μM test compounds and incubated for an additional 24 hours at 37° C. (All compounds were in DMSO and the final concentration of DMSO in the assay was 0.1%). In all experiments, serum (5%) and HGF (50 ng/mL final) were run as positive controls and DMSO vehicle was run as a negative control. 10 μL Cell titer Glo reagent (Promega) was added to each well and plates were mixed by gentle tapping. After 10 minutes at room temperature, plates were read on a Packard Top Count Luminescence plate reader. Proliferation was expressed as a percentage of growth compared to 50 ng/mL HGF control, with the DMSO control representing 0% growth and the HGF control representing 100% growth.

[2] = MTT cell viability assay, protection from adriamycin-induced apoptosis; details: dog, MDCK cells
Method: (§1) Using the MTT cell viability assay the ability of compounds of the invention to protect cells from adriamycin-induced apoptosis is tested.

[3] = test system: LX2 cells (collagen I mRNA); assay: Antifibrotic activity: collagen I mRNA by real time PCR in LX2 hepatic stellate cells; format: cell-based, human; details: serum starved LX2 cells, 24 hours, HGF 100 ng/ml
Method: 2. Antifibrotic Activity of HGF and compounds of the invention in vitro and in vivo. The antifibrotic effects of HGF and compounds of the invention in the immortalized human hepatic stellate cell line LX2 are determined. Serum starved LX2 cells are treated for 24 hours with HGF at 100 ng/ml and compounds of the invention at doses ranging from 12 to 24 ug/ml. RNA is then isolated and real time PCR is performed to evaluate changes in collagen I mRNA. Results typically indicate a 90% and 70% decrease in collagen I mRNA expression in cells treated with instant compounds and HGF, respectively. Additional experiments to determine the effects of HGF and compounds on TGFb-1, bPDGF-R and MMP-1 mRNA are also performed to more completely characterize activities of these compounds which can contribute to their antifibrotic effects.

Method for MDCK cells: as §1

With `CCn1c(C)nc2cc(-c3ccccc3)ccc21` [1-ethyl-2-methyl-5-phenyl-1H-benzo[d]imidazole] the “HGF/SF-like activity (HUVEC proliferation)” value (“HGF/SF-like activity” for short) [1] was “active”.
For `CC(C)N1CC(c2nc(-c3ccc4ccccc4c3)c[nH]2)CC1=O` (centres unmarked) [1-isopropyl-4-(4-(naphthalen-2-yl)-1H-imidazol-2-yl)pyrrolidin-2-one], the “HGF/SF-like activity” value [1] was “active”.
In the case of `C(=Cc1cccs1)c1ccc[nH]1` [2-(2-(thiophen-2-yl)vinyl)-1H-pyrrole], the “HGF/SF-like activity” value [1] is reported as “active”.
With `Nc1ccc(C=Cc2nc3cc(N)ccc3[nH]2)cc1` [2-(4-aminostyryl)-1H-benzo[d]imidazol-5-amine] the “HGF/SF-like activity” value [1] was “active”.
For `c1ccc2cc(-c3ncc[nH]3)ccc2c1` [2-(naphthalen-2-yl)-1H-imidazole], the “HGF/SF-like activity” value [1] was “active”.
In the case of `C(=Cc1ncc[nH]1)c1ccccc1` [2-styryl-1H-imidazole], the “HGF/SF-like activity” value [1] is reported as “active”.
For `CSc1nnc(C=Cc2cccs2)[nH]1` [3-(methylthio)-5-(2-(thiophen-2-yl)vinyl)-4H-1,2,4-triazole], the “HGF/SF-like activity” value [1] was “active”.
For `c1ccc2cc(-c3cnc[nH]3)ccc2c1` [5-(naphthalen-2-yl)-1H-imidazole], the “HGF/SF-like activity” value [1] was “active”.
For `c1ccc2cc(-c3nnn[nH]3)ccc2c1` [5-(naphthalen-2-yl)-1H-tetrazole], the “HGF/SF-like activity” value [1] was “active”.
For `C(=Cc1cnc[nH]1)c1ccccc1` [5-styryl-1H-imidazole], the “HGF/SF-like activity” value [1] was “active”.
For `C(=Cc1nnn[nH]1)c1ccccc1` [5-styryl-1H-tetrazole], the “HGF/SF-like activity” value [1] was “active”.
In the case of `Nc1nnc(C=Cc2ccccc2)[nH]1` [5-styryl-4H-1,2,4-triazol-3-amine], the “HGF/SF-like activity” value [1] is reported as “active”.
For `c1coc(-c2ccc3cn[nH]c3c2)c1` [6-(furan-2-yl)-1H-indazole], the “HGF/SF-like activity” value [1] was “active”.
For `c1cc(-c2ccc3cn[nH]c3c2)co1` [6-(furan-3-yl)-1H-indazole], the “HGF/SF-like activity” value [1] was “active”.
In the case of `c1csc(-c2ccc3cn[nH]c3c2)c1` [6-(thiophen-2-yl)-1H-indazole], the “HGF/SF-like activity” value [1] is reported as “active”.
In the case of `c1cc(-c2ccc3cn[nH]c3c2)cs1` [6-(thiophen-3-yl)-1H-indazole], the “HGF/SF-like activity” value [1] is reported as “active”.
`COc1cccc2c1C(=O)c1c(O)c3c(c(O)c1C2=O)C[C@@](O)(C(=O)CO)C[C@@H]3O[C@H]1C[C@H](N)[C@H](O)[C@H](C)O1` [Adriamycin, adriamycin] showed a viability [2] of 56%.
In the case of `CS(=O)(=O)Nc1ccc(-c2ccc3nc[nH]c3c2)cc1` [N-(4-(1H-benzo[d]imidazol-6-yl)phenyl)methanesulfonamide], the “HGF/SF-like activity” value [1] is reported as “active”.
For “HGF: Scatter factor / hepatocyte growth factor, pleiotropic growth factor used as positive control”, the “decrease in collagen I mRNA expression” value [3] was 70% and the “cell viability after pretreatment, then adriamycin” value (MDCK cells) was 94%.
